Test systems include A498; CAKI-1; CCRF-CEM; HOP-18; IGROV-1; M14; NCI-H226; NCI-H522; RXF 393; SNB-19; SNB-78; SW-620; TK-10; U-251; SK-MEL-28; BT-549; DU-145; MCF7; NCI/ADR-RES; T47D.
What all share (assay): NCI-60 cell line screen, 48 h

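Where inhibition never reached the appropriate level, the endpoint shown equals the highest concentration tested. Otherwise, values were interpolated linearly from a five-concentration, 48-hour dose response in 96-well plates. GI50: concentration for 50% inhibition of growth.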 Active and inactive are the calls of the source. Rule as the data show it: active = GI50 up to about 1.1 µM and inactive = higher.

`COC(=O)/C([Se]c1c(C)cc(C)cc1C)=C(/[Se]c1c(C)cc(C)cc1C)C(=O)OC`: the GI50 in the assay with A498, with CAKI-1, in the assay with CCRF-CEM, with HOP-18, in the assay on IGROV-1 and in the assay on M14 was > 100 µM (inactive) each time. Moreover, the GI50 in the assay with NCI-H226, in the assay on NCI-H522, in the assay with RXF 393, with SNB-19, in the assay with SNB-78 and in the assay with SW-620 was > 100 µM (inactive) each time. In addition, the GI50 with TK-10 and in the assay with U-251 was > 100 µM (inactive) each time.

On to `Ic1cc2c(cc1C1SCCCS1)OCO2`, for which the GI50 in the assay with A498, with CAKI-1, in the assay on CCRF-CEM, in the assay with HOP-18, with IGROV-1 and in the assay with M14 was > 100 µM (inactive) in each case. The GI50 in the assay with NCI-H226, in the assay on NCI-H522, with RXF 393, with SK-MEL-28, in the assay on SNB-19 and in the assay on SNB-78 was > 100 µM (inactive) in each case. Moreover, the GI50 in the assay on SW-620, in the assay on TK-10 and with U-251 was > 100 µM (inactive) throughout.

Turning to `COc1cc(OC)c2c(c1)C(=O)C(CC1(C)OCCCO1)=CC2=O`, the GI50 in the assay with A498 was 18.4 µM (inactive); with CAKI-1, 8 µM (inactive); in the assay on CCRF-CEM, 1.74 µM (inactive); in the assay with HOP-18 it was 13 µM (inactive); in the assay on IGROV-1 it was 17.9 µM (inactive); in the assay on M14, 13 µM (inactive). In addition, the GI50 with NCI-H226 is 19.6 µM (inactive); in the assay with NCI-H522, 3.43 µM (inactive); with RXF 393 it was 3.54 µM (inactive); with SK-MEL-28 it was 11.6 µM (inactive); with SNB-19 it was 18.2 µM (inactive); in the assay with SNB-78, 7.96 µM (inactive). The results for the GI50 in the assay with SW-620, in the assay with TK-10 and in the assay with U-251 were 7.57 µM (inactive), 12.5 µM (inactive) and 17.4 µM (inactive), respectively.

`CC(=O)OCC1=C(CCC#N)N2C(=O)C(NC(=O)Cc3cccs3)C2[S+]([O-])C1` (centres undefined): the GI50 with A498, in the assay on CAKI-1, with CCRF-CEM, with HOP-18, in the assay with IGROV-1 and in the assay on M14 was > 100 µM (inactive) each time. The GI50 in the assay on NCI-H226 was > 100 µM (inactive); with NCI-H522 it was 44.6 µM (inactive); in the assay on RXF 393 it was > 100 µM (inactive); with SK-MEL-28, > 100 µM (inactive); with SNB-19, > 100 µM (inactive); with SNB-78, > 100 µM (inactive). Moreover, the GI50 in the assay with SW-620, with TK-10 and with U-251 was > 100 µM (inactive) in each case.

On to `CN(C)c1nc(N(C)c2ccccc2)[s+]s1`, for which the GI50 with A498 is 50.8 µM (inactive); in the assay with CAKI-1 it was > 100 µM (inactive); in the assay on CCRF-CEM it was 35.7 µM (inactive); in the assay with HOP-18 it was > 100 µM (inactive); in the assay with IGROV-1, > 100 µM (inactive); in the assay with M14, 32.4 µM (inactive). Moreover, the GI50 was 99.8 µM (inactive) in the assay on NCI-H226; > 100 µM (inactive) with NCI-H522; > 100 µM (inactive) in the assay on RXF 393; 64.3 µM (inactive) with SK-MEL-28; > 100 µM (inactive) in the assay with SNB-19; > 100 µM (inactive) with SNB-78. The GI50 is > 100 µM (inactive) in the assay with SW-620, > 100 µM (inactive) in the assay on TK-10 and 31.6 µM (inactive) with U-251.

For `CCOC(=O)C1(Br)C(c2ccccc2)NC(=O)NC1(C)Br` (centres undefined), the GI50 in the assay on A498 is > 100 µM (inactive); in the assay with CAKI-1, 18.5 µM (inactive); in the assay on CCRF-CEM, 33.9 µM (inactive); in the assay on HOP-18, > 100 µM (inactive); in the assay on IGROV-1, 54.6 µM (inactive); with M14 it was 82.8 µM (inactive). The GI50 with NCI-H226 is > 100 µM (inactive); in the assay on NCI-H522, 30.3 µM (inactive); in the assay on RXF 393 it was 25.1 µM (inactive); with SK-MEL-28 it was > 100 µM (inactive); with SNB-19, 19 µM (inactive); in the assay with SNB-78, > 100 µM (inactive). In addition, the GI50 in the assay on SW-620 is 0.332 µM (active); in the assay with TK-10 it was > 100 µM (inactive); in the assay on U-251, 16.4 µM (inactive).

For the compound `C=C1CCCC2OC(OC)CCC12` (centres undefined), the GI50 in the assay with A498, with CAKI-1, with CCRF-CEM, in the assay with HOP-18, with IGROV-1 and in the assay on M14 was > 100 µM (inactive) each time. Moreover, the GI50 with NCI-H226, in the assay with NCI-H522, in the assay with RXF 393, in the assay on SNB-19, with SNB-78 and with SW-620 was > 100 µM (inactive) in each case. The GI50 in the assay with TK-10 and in the assay with U-251 was > 100 µM (inactive) in each case.

For `Cc1c2cnccc2c(C)c2c1c1ccccc1n2CCCN`, the GI50 in the assay with A498 was 0.871 µM (active); in the assay with BT-549 it was 1.46 µM (inactive); in the assay with DU-145, 0.104 µM (active); with HOP-18, 0.492 µM (active); in the assay on IGROV-1, 0.506 µM (active); in the assay on M14, 0.276 µM (active). The GI50 is 0.282 µM (active) in the assay with MCF7; 0.873 µM (active) in the assay on NCI-H226; 0.447 µM (active) with NCI-H522; 0.299 µM (active) in the assay with NCI/ADR-RES; 0.301 µM (active) with RXF 393; 0.857 µM (active) with SK-MEL-28. For the same compound, the GI50 with SNB-19 is 0.424 µM (active); in the assay with SNB-78, 0.76 µM (active); in the assay on SW-620 it was 0.0787 µM (active); in the assay on T47D, 0.526 µM (active); in the assay with TK-10 it was 0.326 µM (active); in the assay with U-251 it was 0.258 µM (active).

Consider `C=CCCC12CCCC(=O)C1Sc1ccc3ccccc3c12` (centres undefined), for which the GI50 in the assay on A498 is 13.1 µM (inactive); with CAKI-1, 9.04 µM (inactive); in the assay on CCRF-CEM, 17.7 µM (inactive); in the assay with HOP-18, 19.7 µM (inactive); in the assay with IGROV-1, 33.8 µM (inactive); in the assay on M14, 13.2 µM (inactive). The GI50 in the assay on NCI-H226 is 14.1 µM (inactive); in the assay with NCI-H522 it was 15 µM (inactive); with RXF 393, 12.2 µM (inactive); in the assay with SK-MEL-28, 20.7 µM (inactive); with SNB-19, 24.4 µM (inactive); in the assay with SNB-78, 20.8 µM (inactive). The values for the GI50 with SW-620, in the assay with TK-10 and with U-251 were 15.9 µM (inactive), 20.9 µM (inactive) and 16.6 µM (inactive), respectively.

As to `NC(=O)c1csc(C2OC(CO)C(O)C2O)n1` (centres undefined), the GI50 in the assay on A498 was 785 µM (inactive); in the assay on BT-549, 885 µM (inactive); in the assay on CCRF-CEM, 7.8 µM (inactive); with DU-145 it was 179 µM (inactive); in the assay with HOP-18 it was 1170 µM (inactive); with IGROV-1, 42.4 µM (inactive). In addition, the GI50 with M14 is 6.84 µM (inactive); in the assay with MCF7 it was 31.4 µM (inactive); with NCI-H226, 723 µM (inactive); in the assay with NCI-H522, 50.1 µM (inactive); in the assay on NCI/ADR-RES it was 57 µM (inactive); in the assay with RXF 393, 126 µM (inactive). Besides, the GI50 in the assay on SNB-19 was 38.3 µM (inactive); with SNB-78, 92.7 µM (inactive); in the assay with SW-620 it was 13.8 µM (inactive); in the assay on T47D it was 2790 µM (inactive); in the assay with TK-10 it was 237 µM (inactive); in the assay with U-251 it was 8.39 µM (inactive).

With `COc1cc2c(c(OC)c1OC)-c1ccc(OC)c(=O)cc1[C@@H](N(C)C=O)CC2`, the GI50 in the assay with A498 was 0.0209 µM (active); with CAKI-1, 0.0304 µM (active); in the assay on CCRF-CEM, 0.0164 µM (active); with HOP-18, > 100 µM (inactive); in the assay with IGROV-1, 0.0262 µM (active); in the assay on M14, < 0.0122 µM (active). For the same compound, the GI50 is 0.162 µM (active) in the assay on NCI-H226; 0.015 µM (active) in the assay on NCI-H522; 0.0161 µM (active) in the assay with RXF 393; < 0.01 µM (active) with SK-MEL-28; 0.0215 µM (active) in the assay with SNB-19; 0.0135 µM (active) with SNB-78. The GI50 with SW-620 was 0.0134 µM (active); in the assay with TK-10, 1.45 µM (inactive); in the assay with U-251, < 0.0163 µM (active).

The record behind these values is ChEMBL document CHEMBL1201862, “PubChem BioAssay data set” (2004).
